Results taken from patent US7156906B2, “Impregnating agent” (Yara International ASA, priority 2001, dated 2007).

Columns and labels:
[1] = test system: Dacrymyces stillatus; assay: growth of the fungi Dacrymyces stillatus at varying concentrations; assay type: cell-based; details: FIG. 2
Excerpt: (§1) Coniophora puteana and […] stillatus, the former is a standard organism in such tests prescribed for use in the European Standard Test EN 113.

[2] = test system: Coniophora puteana; assay: wood block test, % reduction of dry matter after exposure to fungi (EN 113); details: 3 months
Protocol: Coniophora puteana and […] stillatus, the former is a standard organism in such tests prescribed for use in the European Standard Test EN 113. The tests were carried out in the following way: Small blocks of wood of the prescribed size 5 cm×2.5 cm×1.5 cm were numbered and then dried in an oven at 105° C. for 24 hours, cooled and weighed. That represented the dry weight at start. […] The blocks were impregnated with said solution and control blocks with sterile distilled water under vacuum for 10 minutes and then left in the impregnating solution for 1 hour, whereupon they were completely soaked with the impregnating solution. Subsequent to this impregnation the blocks were placed on filter paper for 30 minutes for drainage. The test blocks were then washed three times with distilled water for 2 minutes and then left in distilled water for 24 hours and finally washed three times with distilled water and then placed on filter paper for drainage. Four blocks were used for each concentration of impregnating solution with 2 blocks in each test flask, so-called Kolle flasks. The duration of the tests was 3 months. The blocks were then removed from the flasks and scraped clean of fungi, whereupon they were dried at 105° C. for 24 hours and weighed and percent reduction in dry weight was calculated.

[3] = test system: Coniophora puteana; assay: growth of the fungi Coniophora puteana at varying concentrations; assay type: cell-based; details: FIG. 1
Excerpt: as §1

O=CO.O=C[O-].[K+] [K-diformate, potassium diformate]
concentration necessary to achieve complete retardation in growth [1]: at least 0.18 weight % | concentration necessary to obtain required effect on reduction of dry matter ([2]; with subsequent washing of test blocks, FIG. 4): 4.8% | concentration giving complete effect on reduction of dry matter ([2]; without subsequent washing of test blocks, FIGS. 3 and 7): 1.3–2% | concentration at which it acts as an effective fungicide (growth) [3]: at least 0.13 weight %
